Assay results published in patent US8796271B2, “Heteroaryls and uses thereof” (Millennium Pharmaceuticals, Inc., priority 2010, dated 2014).
Where two headings read alike, the source gives them in different places.

Key:
Format in all cases: biochemical
PI3K gamma = biological target: T1, PI3K gamma (Homo sapiens, UniProt P48736); test: Human PI3K gamma enzyme assay (HTRF)
T1 construct: His (N); host or cells: SF9 cells (baculovirus)
Description: (§1) The catalytic subunits of PI3Ks are cloned into either pDEST8 (p110 alpha) or pDEST10 (p110beta, p110delta, and p110gamma) as N-terminal His tagged fusion proteins using the Gateway system (Invitrogen, catalog #11804-010 for pDEST8 and 11806-015 for pDEST10). The sequences are verified before recombinant protein expression using the Baculovirus Expression System with Gateway® Technology. The accession numbers for the subunits are as follows:
(§2) For expression of the p110 complexes, the p85 (MOI of 4) is co-infected with p110 alpha, beta, and delta respectively (1MOI) in SF9 cells and harvested at 60 hours post co-infection. P110 gamma was infected at 1 MOI and harvested at 60 hours post infection.
(§3) For purification, PI3Ks are purified by Ni-NTA Agarose (Qiagen #30250) followed by Mono Q 10/100 GL (Ge Healthcare #17-5167-01). VPS34 is purified by Glutathione Sepharose 4 Fast Flow (GE Healthcare #17-5132-03) followed by HiTrap Q (GE Healthcare #17-1153-01).
(§4) 0.5 uL compounds in DMSO are added to wells of a 384 well microtitre plate (Corning 3575). At room temperature: 10 ul PI3K reaction buffer (50 mM Hepes, 5 mM DTT, 150 mM NaCl, 10 mM beta-glycerophosphate, 10 mM MgCl2, 0.25 mM sodium cholate and 0.001% CHAPS, pH 7.00) containing ATP (25 uM, Promega) is added followed immediately by 10 ul PI3K reaction buffer containing di-C8 PI(4,5)P2 (3.5 uM, CellSignals) and PI3Kalpha (0.4875 nM, Millennium Protein Sciences Group) and the mixture is incubated with shaking at room temperature for 30 minutes. Then 5 ul PI3K stop mix (50 mM Hepes, 5 mM DTT, 150 mM NaCl, 0.01% Tween-20, 15 mM EDTA and 25 nM biotin-PI(3,4,5)P3 (Echelon) is added to quench the reaction followed immediately by addition of 5 ul HTRF detection mix (50 mM Hepes, 5 mM DTT, 150 mM NaCl, 0.01% Tween-20, 40 mM KF, 10 nM GST:GRP-1 PH domain (Millennium Protein Sciences Group), 15 nM Streptavidin-XL (CisBio) and 0.375 nM anti-GST Eu++ antibody (CisBio) at pH 7.00). The plates are then incubated for 1 hour at room temperature with shaking and then read on a BMG PheraStar Plus reader.
(§5) 2) Human PI3K beta, delta and gamma isoforms are tested using the procedure described for PI3K alpha above but with the following changes: PI3K beta (5.25 nM), PI3K delta (0.75 nM) and PI3K gamma (5 nM). All isoforms supplied by Millennium Protein Science Group.
(§6) For the assay methods described above, test compound percent inhibition, at various concentrations, is calculated relative to control (DMSO and EDTA) treated samples. Compound concentration versus percent inhibition curves are fitted to generate IC50 values. One skilled in the art will appreciate that the values generated either as percentage inhibition at a single concentration or IC50 values are subject to experimental variation.

PI3K delta = biological target: T2, PI3K delta (Homo sapiens, UniProt O00329); test: Human PI3K delta enzyme assay (HTRF)
T2 construct: His (N); host or cells: SF9 cells (baculovirus)
T2 sequence (O00329 whole entry): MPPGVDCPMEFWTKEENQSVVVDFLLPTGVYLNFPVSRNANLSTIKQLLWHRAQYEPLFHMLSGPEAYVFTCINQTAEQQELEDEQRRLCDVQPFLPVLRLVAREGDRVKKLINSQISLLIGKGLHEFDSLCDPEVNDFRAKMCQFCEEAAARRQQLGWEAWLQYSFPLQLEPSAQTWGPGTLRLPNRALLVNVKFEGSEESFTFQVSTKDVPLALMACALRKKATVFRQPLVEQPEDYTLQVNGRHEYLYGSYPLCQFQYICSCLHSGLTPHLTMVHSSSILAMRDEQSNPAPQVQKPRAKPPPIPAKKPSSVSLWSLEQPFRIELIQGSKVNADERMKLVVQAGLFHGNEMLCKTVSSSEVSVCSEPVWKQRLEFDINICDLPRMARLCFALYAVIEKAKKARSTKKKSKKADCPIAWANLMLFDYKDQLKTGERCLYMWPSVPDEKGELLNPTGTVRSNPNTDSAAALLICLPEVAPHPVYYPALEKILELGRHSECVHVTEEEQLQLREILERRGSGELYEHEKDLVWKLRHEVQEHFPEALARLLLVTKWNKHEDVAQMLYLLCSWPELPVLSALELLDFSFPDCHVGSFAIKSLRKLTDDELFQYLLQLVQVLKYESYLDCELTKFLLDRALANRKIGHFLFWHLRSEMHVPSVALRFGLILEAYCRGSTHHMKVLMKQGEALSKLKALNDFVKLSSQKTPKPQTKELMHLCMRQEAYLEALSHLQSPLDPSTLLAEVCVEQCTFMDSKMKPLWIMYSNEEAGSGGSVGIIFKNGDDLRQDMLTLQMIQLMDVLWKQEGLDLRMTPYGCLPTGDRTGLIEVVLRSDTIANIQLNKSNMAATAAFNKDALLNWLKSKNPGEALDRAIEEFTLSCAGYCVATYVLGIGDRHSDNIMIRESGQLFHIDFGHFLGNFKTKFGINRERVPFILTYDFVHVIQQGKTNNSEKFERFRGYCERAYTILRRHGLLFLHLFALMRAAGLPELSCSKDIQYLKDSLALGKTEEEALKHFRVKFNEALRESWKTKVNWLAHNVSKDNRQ
T2 sequence (P27986 whole entry partner): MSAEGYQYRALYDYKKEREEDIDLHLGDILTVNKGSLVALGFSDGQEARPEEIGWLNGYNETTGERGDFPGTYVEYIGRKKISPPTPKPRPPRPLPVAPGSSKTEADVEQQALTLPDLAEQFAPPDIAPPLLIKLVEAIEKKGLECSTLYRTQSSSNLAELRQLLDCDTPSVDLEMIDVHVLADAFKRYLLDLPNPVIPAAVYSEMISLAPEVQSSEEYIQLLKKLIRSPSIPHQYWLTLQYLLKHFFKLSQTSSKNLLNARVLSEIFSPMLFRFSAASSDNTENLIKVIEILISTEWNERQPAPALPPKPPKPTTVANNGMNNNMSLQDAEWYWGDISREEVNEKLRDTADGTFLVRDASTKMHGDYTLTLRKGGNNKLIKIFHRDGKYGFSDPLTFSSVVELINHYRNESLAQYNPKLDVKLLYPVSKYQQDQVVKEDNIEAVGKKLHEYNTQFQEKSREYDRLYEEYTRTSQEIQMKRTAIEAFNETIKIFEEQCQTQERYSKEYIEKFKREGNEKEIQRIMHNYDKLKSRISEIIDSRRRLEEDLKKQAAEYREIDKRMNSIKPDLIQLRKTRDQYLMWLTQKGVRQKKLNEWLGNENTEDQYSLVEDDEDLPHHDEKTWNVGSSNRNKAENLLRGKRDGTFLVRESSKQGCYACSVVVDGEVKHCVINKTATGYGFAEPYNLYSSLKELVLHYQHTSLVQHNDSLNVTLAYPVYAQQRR
Description: as §1, §2, §3, §4, §5, §6

PI3K beta = biological target: T3, PI3K beta (Homo sapiens, UniProt P42338); test: Human PI3K beta enzyme assay (HTRF)
T3 construct: His (N); host or cells: SF9 cells (baculovirus)
T3 sequence (P42338 whole entry): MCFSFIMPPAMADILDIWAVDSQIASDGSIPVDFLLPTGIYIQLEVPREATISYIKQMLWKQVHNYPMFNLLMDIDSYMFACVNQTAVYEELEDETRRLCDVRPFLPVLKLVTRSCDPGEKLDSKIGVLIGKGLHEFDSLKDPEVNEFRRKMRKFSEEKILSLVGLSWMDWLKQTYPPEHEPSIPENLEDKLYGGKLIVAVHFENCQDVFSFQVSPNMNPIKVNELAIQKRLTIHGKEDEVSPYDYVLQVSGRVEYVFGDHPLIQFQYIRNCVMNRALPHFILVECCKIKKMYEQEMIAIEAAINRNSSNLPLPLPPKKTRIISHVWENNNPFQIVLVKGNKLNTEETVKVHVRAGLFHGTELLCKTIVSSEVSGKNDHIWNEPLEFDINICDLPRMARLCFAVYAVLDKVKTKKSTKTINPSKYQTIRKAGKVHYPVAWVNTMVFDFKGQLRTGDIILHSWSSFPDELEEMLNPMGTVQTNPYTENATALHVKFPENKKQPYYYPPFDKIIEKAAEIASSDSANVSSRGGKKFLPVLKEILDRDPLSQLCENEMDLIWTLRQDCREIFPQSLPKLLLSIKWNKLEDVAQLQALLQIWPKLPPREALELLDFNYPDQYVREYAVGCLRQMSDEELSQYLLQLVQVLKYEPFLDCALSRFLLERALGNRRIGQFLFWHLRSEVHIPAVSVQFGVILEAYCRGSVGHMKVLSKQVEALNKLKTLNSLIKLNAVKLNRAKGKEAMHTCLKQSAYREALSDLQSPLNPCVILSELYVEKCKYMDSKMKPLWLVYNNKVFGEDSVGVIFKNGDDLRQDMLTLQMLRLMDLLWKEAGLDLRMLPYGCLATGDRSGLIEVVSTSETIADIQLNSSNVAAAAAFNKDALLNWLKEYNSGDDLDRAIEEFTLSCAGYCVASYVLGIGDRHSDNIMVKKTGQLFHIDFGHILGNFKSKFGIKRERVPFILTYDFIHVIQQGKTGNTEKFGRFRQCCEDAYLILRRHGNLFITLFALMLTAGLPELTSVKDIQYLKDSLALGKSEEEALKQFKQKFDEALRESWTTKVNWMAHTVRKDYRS
T3 sequence (P27986 whole entry partner): as the sequence (P27986 whole entry partner) above
Description: as §1, §2, §3, §4, §5, §6

PI3Kalpha = biological target: T4, PI3Kalpha (Homo sapiens, UniProt P42336); test: Human PI3K alpha enzyme assay (HTRF)
T4 construct: His (N); host or cells: SF9 cells (baculovirus)
T4 sequence (P42336 whole entry): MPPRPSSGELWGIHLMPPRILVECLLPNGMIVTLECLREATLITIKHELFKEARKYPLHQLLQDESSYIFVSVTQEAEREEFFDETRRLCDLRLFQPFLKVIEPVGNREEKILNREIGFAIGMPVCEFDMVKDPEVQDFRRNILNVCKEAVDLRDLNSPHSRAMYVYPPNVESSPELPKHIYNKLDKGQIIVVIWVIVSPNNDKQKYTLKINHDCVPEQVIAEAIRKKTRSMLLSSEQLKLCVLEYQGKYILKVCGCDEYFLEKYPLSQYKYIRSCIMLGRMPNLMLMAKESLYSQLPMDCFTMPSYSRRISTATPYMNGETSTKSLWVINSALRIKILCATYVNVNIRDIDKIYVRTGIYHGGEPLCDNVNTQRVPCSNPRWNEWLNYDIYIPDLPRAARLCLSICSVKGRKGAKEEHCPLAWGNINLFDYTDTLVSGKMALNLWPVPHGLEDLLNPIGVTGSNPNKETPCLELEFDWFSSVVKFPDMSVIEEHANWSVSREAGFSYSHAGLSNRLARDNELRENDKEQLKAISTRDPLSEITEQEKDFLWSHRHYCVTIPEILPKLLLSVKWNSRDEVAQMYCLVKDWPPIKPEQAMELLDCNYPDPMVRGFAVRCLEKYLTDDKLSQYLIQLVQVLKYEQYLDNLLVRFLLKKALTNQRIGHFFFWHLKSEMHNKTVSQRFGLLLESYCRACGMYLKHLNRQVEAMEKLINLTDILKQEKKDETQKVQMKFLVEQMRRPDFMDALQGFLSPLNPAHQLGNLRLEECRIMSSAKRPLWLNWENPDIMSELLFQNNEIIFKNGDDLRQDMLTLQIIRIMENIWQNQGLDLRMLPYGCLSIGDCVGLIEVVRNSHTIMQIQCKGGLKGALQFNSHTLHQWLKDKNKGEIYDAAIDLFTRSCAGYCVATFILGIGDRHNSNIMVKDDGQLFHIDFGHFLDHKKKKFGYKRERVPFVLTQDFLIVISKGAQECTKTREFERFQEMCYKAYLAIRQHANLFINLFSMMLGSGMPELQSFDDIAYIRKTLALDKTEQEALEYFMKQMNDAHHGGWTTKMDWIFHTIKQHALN
T4 sequence (P27986 whole entry partner): as the sequence (P27986 whole entry partner) above
Description: as §1, §2, §3
1) Human PI3K Alpha Enzyme Assay Method
as §4, §6

VPS34 = biological target: T5, VPS34 (Homo sapiens, UniProt Q8NEB9); test: Human VPS34 enzyme assay (Adapta Universal Kinase Assay); conditions: 1 h; at a 1.0 μM concentration; read-out: VPS34 Percent Inhibition
T5 construct: GST (N); host or cells: SF9 cells (baculovirus)
Description: VPS34 (accession number GB:BC033004) is cloned into pDEST20-Thombin as N-terminal GST tagged fusion proteins using the Gateway system (Invitrogen, catalog #11804-013). The sequences are verified before recombinant protein expression using the Baculovirus Expression System with Gateway® Technology.
For expression VPS34 was infected at 1MOI in SF9 cells and harvested 72 hours post infection.
For purification, VPS34 is purified by Glutathione Sepharose 4 Fast Flow (GE Healthcare #17-5132-03) followed by HiTrap Q (GE Healthcare #17-1153-01).
3) VPS34 is assayed using Adapta™ Universal Kinase Assay Kit (Invitrogen).
4) Human VPS34 enzyme assay method
100 nL compounds in DMSO are added to wells of a 384 well microtitre plate (Greiner 780076). […] The plates are then incubated for 30 minutes at room temperature with shaking and then read on a BMG PheraStar Plus reader.
For the assay methods described above, test compound percent inhibition, at various concentrations, is calculated relative to control (DMSO and EDTA) treated samples. […]

[1] = concentration not given, b1433 gives 1.0 μM for PI3K δ and γ, read-out: p110 gamma Percent Inhibition
[2] = concentration not given, b1433 gives 1.0 μM for PI3K δ and γ, read-out: p110 delta Percent Inhibition
[3] = concentration not given, read-out: p110 beta Percent Inhibition
[4] = concentration not given, read-out: p110 alpha Percent Inhibition
[5] = at a 1.0 μM concentration, read-out: PI3Kγ Percent Inhibition
[6] = at a 1.0 μM concentration, read-out: PI3Kδ Percent Inhibition
[7] = at a 1.1 μM concentration, read-out: PI3Kβ Percent Inhibition
[8] = at a 1.1 μM concentration, read-out: PI3Kα Percent Inhibition

T1 sequence (P48736 whole entry): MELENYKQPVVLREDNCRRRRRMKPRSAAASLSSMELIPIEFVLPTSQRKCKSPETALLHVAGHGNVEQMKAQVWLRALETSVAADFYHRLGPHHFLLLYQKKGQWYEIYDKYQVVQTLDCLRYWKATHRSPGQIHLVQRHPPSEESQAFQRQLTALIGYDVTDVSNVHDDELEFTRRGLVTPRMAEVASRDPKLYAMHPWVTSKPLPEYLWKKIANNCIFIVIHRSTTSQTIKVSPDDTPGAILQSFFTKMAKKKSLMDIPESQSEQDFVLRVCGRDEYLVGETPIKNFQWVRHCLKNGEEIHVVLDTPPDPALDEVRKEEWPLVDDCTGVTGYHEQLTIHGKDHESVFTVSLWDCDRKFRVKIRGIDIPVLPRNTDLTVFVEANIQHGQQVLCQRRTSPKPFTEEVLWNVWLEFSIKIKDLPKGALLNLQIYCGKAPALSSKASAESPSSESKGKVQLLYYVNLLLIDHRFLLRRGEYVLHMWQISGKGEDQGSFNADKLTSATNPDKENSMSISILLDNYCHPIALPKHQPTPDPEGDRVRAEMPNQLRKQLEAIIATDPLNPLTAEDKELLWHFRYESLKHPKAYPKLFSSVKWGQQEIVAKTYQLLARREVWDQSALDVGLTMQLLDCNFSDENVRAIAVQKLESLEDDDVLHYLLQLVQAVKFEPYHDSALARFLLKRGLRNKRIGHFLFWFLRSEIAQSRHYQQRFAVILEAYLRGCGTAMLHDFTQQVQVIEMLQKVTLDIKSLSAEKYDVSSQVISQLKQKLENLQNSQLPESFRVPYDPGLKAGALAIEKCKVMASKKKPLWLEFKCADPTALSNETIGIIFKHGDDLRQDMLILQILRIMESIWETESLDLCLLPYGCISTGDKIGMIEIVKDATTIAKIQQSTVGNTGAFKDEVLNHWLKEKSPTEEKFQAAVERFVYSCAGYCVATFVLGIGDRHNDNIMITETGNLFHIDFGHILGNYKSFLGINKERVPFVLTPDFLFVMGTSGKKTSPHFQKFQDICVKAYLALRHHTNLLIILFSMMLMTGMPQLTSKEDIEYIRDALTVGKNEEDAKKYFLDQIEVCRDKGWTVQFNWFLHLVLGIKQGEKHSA

Row | Compound | inhibition at 1 µM (PI3K gamma; [1]) | inhibition at 1 µM (PI3K delta; [2]) | inhibition at 1.1 µM (PI3K beta; [3]) | inhibition at 1.1 µM (PI3Kalpha; [4]) | inhibition at 1 µM (PI3K gamma; [5]) | inhibition at 1 µM (PI3K delta; [6]) | inhibition at 1.1 µM (PI3K beta; [7]) | inhibition at 1 µM (VPS34) | inhibition at 1.1 µM (PI3Kalpha; [8])
1 | COc1cccc(C(O)c2cc(-c3ccncc3)sc2-c2nnc[nH]2)c1 (stereo not shown) [Compound 253] | 2% | 27% | 64% | 20% | – | – | – | – | –
2 | N#Cc1c(N2CCOCC2)sc(C(=O)O)c1Cc1ccc2ccccc2c1F [Compound 293] | 78% | – | 108% | 98% | – | – | – | – | –
3 | N#Cc1c(N2CCOCC2)sc(C(=O)O)c1C(F)(F)c1ccc2ccccc2c1 [Compound 308] | 39% | – | 106% | 41% | – | – | – | – | –
4 | N#Cc1c(N2CCOCC2)sc(C(=O)O)c1Cc1ccc(OC(F)(F)F)cc1 [Compound 102] | – | – | – | – | 6.8% | 38.1% | 78% | 28.2% | 30%
5 | N#Cc1c(N2CCOCC2)sc(C(N)=O)c1C(F)(F)c1ccc2ccccc2c1 [Compound 307] | 9% | – | 84% | 15% | – | – | – | – | –
6 | c1ccc2cc(Cc3nc(N4CCOCC4)sc3-c3nnn[nH]3)ccc2c1 [Compound 360, 4-[4-(2-naphthylmethyl)-5-(1H-tetrazol-5-yl)-1,3-thiazol-2-yl]morpholine] | 49% | 110% | 106% | 30% | – | – | – | – | –
7 | N#Cc1c(N2CCOCC2)sc(C(=O)O)c1Cc1ccc2ccc(F)cc2c1 [Compound 287] | 69% | – | 109% | 84% | – | – | – | – | –
8 | N#Cc1c(N2CCOCC2)sc(C(=O)O)c1Cc1cc(F)c(F)cc1F [Compound 107] | – | – | – | – | 20.2% | 87.3% | 103% | 45.8% | 49%
9 | OC(c1cc(Br)cs1)c1cc(-c2ccncc2)sc1-c1nnc[nH]1 (stereo not shown) [Compound 233] | 28% | 74% | 97% | 61% | – | – | – | – | –
10 | N#Cc1c(N2CCOCC2)sc(C(=O)O)c1Cc1cc2ccccc2cc1F [Compound 295] | 76% | – | 111% | 101% | – | – | – | – | –
11 | NCc1c[nH]c(-c2sc(-c3ccncc3)nc2Cc2ccc(Cl)cc2)n1 [Compound 255, (2-(4-(4-chlorobenzyl)-2-(pyridin-4-yl)thiazol-5-yl)-1H-imidazol-4-yl)methanamine] | 5% | 39% | 55% | 0% | – | – | – | – | –
12 | N#Cc1c(N2CCOCC2)sc(C(=O)O)c1Cc1cc(F)c(Cl)cc1F [Compound 300] | 46% | – | 105% | 44% | – | – | – | – | –
13 | N#Cc1c(N2CCOCC2)sc(C(=O)O)c1Cc1cc(F)c2ccccc2c1 [Compound 324] | 67% | – | 118% | 107% | – | – | – | – | –
14 | N#Cc1c(N2CCOCC2)sc(-c2nnn[nH]2)c1C(F)(F)c1ccc2ccccc2c1 [Compound 349] | 42% | – | 108% | 43% | – | – | – | – | –
15 | N#Cc1c(N2CCOCC2)sc(C(=O)O)c1Cc1ccc2c(F)cccc2c1 [Compound 343] | 67% | – | 110% | 84% | – | – | – | – | –
16 | COC(c1ccc2ccccc2c1)c1c(C(=O)O)sc(N2CCOCC2)c1C#N (stereo not shown) [Compound 337] | 11% | – | 60% | 14% | – | – | – | – | –
17 | N#Cc1c(N2CCOCC2)sc(C(=O)O)c1Cc1ccc2c(c1)CCCC2 [Compound 305] | 37% | – | 106% | 37% | – | – | – | – | –
18 | N#Cc1c(N2CCOCC2)sc(C(=O)O)c1C(F)c1ccc2ccccc2c1 (stereo not shown) [Compound 345] | 62% | – | 105% | – | – | – | – | – | –
